Results published in publication PMC5748279, “Novel Antitubercular 6-Dialkylaminopyrimidine Carboxamides from Phenotypic Whole-Cell High Throughput Screening of a SoftFocus Library: Structure–Activity Relationship and Target Identification Studies” (Journal of Medicinal Chemistry, 2017).
≈ marks a conversion by molar mass, not a printed value. Like-named read-outs stand apart in the source and are kept apart here.

Legend:
BCG_3193 (Rv3169) = BCG_3193 (Rv3169) (Mycobacterium bovis BCG, UniProt A0A1R3Y3B6); assay: biochemical; format: binding
BCG_3827 (Rv3768) = format: binding, Mycobacterium bovis BCG
[1] = biological target: Mycobacterium bovis BCG extract proteins (Mycobacterium bovis BCG, UniProt A0A0H3M9Z0); assay: biochemical; format: binding
[2] = biological target: Mycobacterium bovis BCG extract proteins (Mycobacterium bovis BCG, UniProt A0A1R3Y5H4); assay: biochemical; format: binding
[3] = biological target: Mycobacterium bovis BCG extract proteins (Mycobacterium bovis BCG, UniProt A0A1R3Y5J1); assay: biochemical; format: binding
[4] = biological target: Mycobacterium bovis BCG extract proteins (Mycobacterium bovis BCG, UniProt A0A1R3Y5K6); assay: biochemical; format: binding
[5] = biological target: Mycobacterium bovis BCG extract proteins (Mycobacterium bovis BCG, UniProt A0A1R3Y5N8); assay: biochemical; format: binding
[6] = biological target: Mycobacterium bovis BCG extract proteins (Mycobacterium bovis BCG, UniProt A0A1R3Y6U4); assay: biochemical; format: binding
[7] = biological target: Mycobacterium bovis BCG extract proteins (Mycobacterium bovis BCG, UniProt A1KLS7); assay: biochemical; format: binding
[8] = biological target: Mycobacterium bovis BCG extract proteins (Mycobacterium bovis BCG, UniProt A1KQG9); assay: biochemical; format: binding
[9] = biological target: Mycobacterium bovis BCG extract proteins (Mycobacterium bovis BCG, UniProt O69687); assay: biochemical; format: binding
[10] = biological target: Mycobacterium bovis BCG extract proteins (Mycobacterium bovis BCG, UniProt P0A4Z9); assay: biochemical; format: binding
[11] = biological target: Mycobacterium bovis BCG extract proteins (Mycobacterium bovis BCG, UniProt P9WGQ7); assay: biochemical; format: binding
[12] = biological target: Mycobacterium bovis BCG extract proteins (Mycobacterium bovis BCG, UniProt P9WKC7); assay: biochemical; format: binding
[13] = biological target: Mycobacterium bovis BCG extract proteins (Mycobacterium bovis, UniProt A0A1R3Y5J0); assay: biochemical; format: binding
[14] = system: Mycobacterium bovis BCG extract proteins; assay: biochemical; format: binding
physchem [15] = format: physicochemical
Experimental: (§1) The kinetic solubility assay was performed using a miniaturised shake flask method. 10 mM stock […]
(§2) DMSO, and to spike (1:50) duplicate aqueous samples of FaSSIF (simulating fasting state biorelevant media, pH 6.5), with a final DMSO concentration of 2%. After shaking for 2 hours at 25 °C, the solutions were filtered and analysed by means of HPLC,DAD (Agilent 1200 Rapid Resolution HPLC with a diode array detector). Best fit calibration curves were constructed using the calibration standards, which were used to determine the aqueous samples’ solubility.13
(§3) 4.2) Microsomal stability
(§4) The metabolic stability assay was performed in duplicate in a 96,well micro titre plate. The test compounds (0.1 µM) were incubated individually in mouse, rat and pooled human liver […]
(§5) the cofactor NADPH (1 mM). Reactions were quenched by adding 300 µL of ice cold acetonitrile containing internal standard (carbamazepine, 0.0236 µg/mL). Test compounds in the supernatant were analysed by means of LC,MS/MS (Agilent Rapid Resolution HPLC, AB SCIEX 4000 QTRAP MS) for the disappearance of parent compound. Metabolite searches were not conducted during the metabolic stability assay.14
(§6) 4.3) Plasma protein binding (PPB) assay
The plasma protein binding assay was performed in a 96,well micro titre plate with pooled human plasma, spiked with test compound (5 µM). An aliquot was immediately removed and quenched using ice cold acetonitrile containing internal standard (carbamazepine, 0.0236 µg/mL), and placed in the freezer. This served as the total concentration sample. After pre,incubation (37 °C for 1 hour) duplicate aliquots of the spiked plasma were transferred to ultra,centrifugation tubes, […]

in vitro [16] = format: in vitro ADME; settings: human, plasma; PPB assay; read-out: free fraction in human plasma
Experimental: as §1, §2, §3
The metabolic stability assay was performed in duplicate in a 96,well micro titre plate. […]
the cofactor NADPH (1 mM). […] Test compounds in the supernatant were analysed by means of LC,MS/MS (Agilent Rapid Resolution HPLC, AB SCIEX 4000 QTRAP MS) for the disappearance of parent compound. […]
and ultracentrifuged for 4 hours (42000 rpm, 37 °C, Beckman Optima L,80XP). Analyte concentration of all compounds and sample types were determined by means of LC,MS/MS (Agilent Rapid Resolution HPLC, AB SCIEX 4000 QTRAP MS). […]
The lipophilicity assay was performed in triplicate using a shake,flask procedure. […] The samples were analysed by HPLC,DAD (Agilent 1200 Rapid Resolution HPLC with a diode array detector) and the amount of compound in the buffer and n, octanol were used to determine the partition coefficient, LogD7.4.15 […]

[17] = format: in vitro ADME
Experimental: and ultracentrifuged for 4 hours (42000 rpm, 37 °C, Beckman Optima L,80XP). Analyte concentration of all compounds and sample types were determined by means of LC,MS/MS (Agilent Rapid Resolution HPLC, AB SCIEX 4000 QTRAP MS).
4.4) Lipophilicity (LogD7.4)
The lipophilicity assay was performed in triplicate using a shake,flask procedure. 10 mM stock solutions of each test compound were used to spike (100 µM) a 1:1 mixture of phosphate buffer (pH 7.4) and n,octanol. The solutions were shaken vigorously (1500 rpm) on an orbital shaker for 3 hours at room temperature. Thereafter the samples were centrifuged in order to fully separate the two immiscible fluids. The samples were analysed by HPLC,DAD (Agilent 1200 Rapid Resolution HPLC with a diode array detector) and the amount of compound in the buffer and n, octanol were used to determine the partition coefficient, LogD7.4.15
4.5) Parallel Artificial Membrane Permeability Assay (PAMPA):
The PAMPA assay was performed in triplicate in 96,well MultiScreen Filter plates (Millipore, 0.4 µM PCTE Membrane). Membrane filters were pre,coated with 5% hexadecane in hexane and allowed to dry prior to the assay. Membrane integrity marker, Lucifer yellow was added to the apical wells of the pre,coated MultiScreen plate donor/drug solutions containing test compound.
Phosphate buffer (pH7.4) was added to the 96,well acceptor plate. 10 mM test compound was used to spike (1 µM) the donor buffer at physiologically relevant pH's (pH 4, 6.5 and 8), the donor plate slotted into the acceptor plate and incubated (4 hours at room temperature) with gentle shaking (40,50 rpm). Following the incubation, sample from the acceptor wells and theoretical equilibrium wells were transferred to the analysis plate and matrix matched with blank donor buffer. Acetonitrile containing internal standard (carbamazepine, 0.0236 µg/mL) was added to all samples and they were analysed by LC,MS/MS (Agilent Rapid Resolution HPLC, AB SCIEX 4500 MS). The normalised (analyte/internal) peak areas were used to calculate the apparent permeability (Papp). Membrane integrity was assessed by calculating the Papp of Lucifer Yellow […]
chemosensitivity. […]. Thus only viable cells […]
formazan. Formazan crystals are dissolved in DMSO. The test samples were tested in triplicate on […]
experiment. […] Emetine was used […]
as the reference drug in all experiments. The initial concentration of emetine was 100 µg/mL, […]
lowest being 0.001 µg/mL. […] The […]
(§7) the cell viability (data not shown).
GraphPad Prism v.4 software. […]
expressing the full length hERG channel. Single cell ionic currents were measured in the […]

mice = assay: Toxicity observed in mice on oral dosing; format: in vivo; settings: higher doses
in vivo = settings: male, C57/BL6, mouse
[18] = Caseum binding using surrogate caseum
[19] = system: Mycobacterium tuberculosis (H37RvMa); assay: microbe, parasite or virus in culture; set-up: MIC99 by standard broth microdilution against M. tuberculosis H37Rv; settings: read-out: MIC99 7H9/ADC (æM)
physchem [20] = settings: sheet table;; kinetic solubility, pH 7.4; aqueous buffer pH 7.4; Kinetic solubility at pH 7.4; read-out: Solubility (æM)
Experimental: as §1, §2, §3, §4, §5, §6
The plasma protein binding assay was performed in a 96,well micro titre plate with pooled human plasma, spiked with test compound (5 µM). […]

[21] = system: Mycobacterium tuberculosis (H37RvMa); assay: microbe, parasite or virus in culture; set-up: MIC99 by standard broth microdilution against M. tuberculosis H37Rv; settings: sheet table;, MIC99, GAST/Fe medium, read-out: MIC99 GAST/Fe (æM)
in vitro [22] = settings: african green monkey; sheet table;; IC50 on Vero cells, MTT; read-out: Cytotoxicity (æM)
Experimental: chemosensitivity. […]. Thus only viable cells
formazan. Formazan crystals are dissolved in DMSO. The test samples were tested in triplicate on
experiment. […] Emetine was used
as the reference drug in all experiments. The initial concentration of emetine was 100 µg/mL,
lowest being 0.001 µg/mL. […] The
as §7
GraphPad Prism v.4 software.
Electrophysiologi Table 2 SAR on the Central Core a Kinetic solubility at pH 7.4. b IC50 on Vero cell lines.

O=C(Nc1ccccc1)c1ccc(=O)n(Cc2ccc(F)cc2)c1 [Compound 25, 1-(4-Fluorobenzyl)-6-oxo-N-phenyl-1,6-dihydropyridine-3-carboxamide]
binding of BCG_3193 to the compound beads in presence of free compound (BCG_3193 (Rv3169)): no effect | IC50 (BCG_3827 (Rv3768)): ≥ 30 µM | binding of BCG_3827 to the compound beads in presence of free compound (BCG_3827 (Rv3768)): no effect | pIC50 (BCG_3827 (Rv3768)): ≤ 4.52 | relative abundance 10: Compound competition 0.029 µM 25 (BCG_3827 (Rv3768); 0.029 µM): 1.06 | relative abundance 9: Compound competition 0.117 µM 25 (BCG_3827 (Rv3768); 0.117 µM): 0.70 | relative abundance 8: Compound competition 0.47 µM 25 (BCG_3827 (Rv3768); 0.47 µM): 1.39 | relative abundance 7: Compound competition 1.88 µM 25 (BCG_3827 (Rv3768); 1.88 µM): 1.36 | relative abundance 6: Compound competition 7.5 µM 25 (BCG_3827 (Rv3768); 7.5 µM): 1.52 | relative abundance 5: Compound competition 30 µM 25 (BCG_3827 (Rv3768); 30 µM): 1.12 | IC50 [1]: ≥ 30 µM | pIC50 [1]: ≤ 4.52 | IC50 [2]: ≥ 30 µM | pIC50 [2]: ≤ 4.52 | IC50 [3]: ≥ 30 µM | pIC50 [3]: ≤ 4.52 | IC50 ([4]; IC50): ≥ 30 µM | IC50 ([4]; pIC50): ≥ 30.2 µM | IC50 ([5]; IC50): ≥ 30 µM | IC50 ([5]; pIC50): ≥ 30.2 µM | IC50 ([6]; IC50): ≥ 30 µM | IC50 ([6]; pIC50): ≥ 30.2 µM | IC50 [7]: ≥ 30 µM | pIC50 [7]: ≤ 4.52 | IC50 [8]: ≥ 30 µM | pIC50 [8]: ≤ 4.52 | IC50 [9]: ≥ 30 µM | pIC50 [9]: ≤ 4.52 | IC50 [10]: ≥ 30 µM | pIC50 [10]: ≤ 4.52 | IC50 ([11]; IC50): ≥ 30 µM | IC50 ([11]; pIC50): ≥ 30.2 µM | IC50 ([12]; IC50): ≥ 30 µM | IC50 ([12]; pIC50): ≥ 30.2 µM | IC50 ([13]; IC50): ≥ 30 µM | IC50 ([13]; pIC50): ≥ 30.2 µM | IC50 [14]: ≥ 30 µM | pIC50 [14]: ≤ 4.52

CN(Cc1ccc(C(F)(F)F)nc1)c1cc(C(=O)Nc2nncs2)ncn1 [Compound 52, 6-(Methyl((6-(trifluoromethyl)pyridin-3-yl)methyl)amino)-N-(1,3,4-thiadiazol-2-yl)pyrimidine-4-carboxamide]
solubility at 2 h (physchem [15]; pH 6.5, fasted-state simulated intestinal fluid, read-out: FassiF solubility at pH 6.5): > 100 µM | solubility kinetic at 2 h (physchem [15]; pH 7.4, pH 7.4): > 100 µM | fraction unbound at 4 h, 5 µM (in vitro [16]): ≤ 0.3 | PAMPA log Papp [17]: –3.9 | toxicity to mice (mice): toxic to mice when dosed orally above 50 mg/kg | AUC(0-inf) at 24 h (in vivo; iv, 5 mg/kg): 35.1 µM·h | clearance at 24 h (in vivo; iv, 5 mg/kg): 6.6 mL/min/kg | AUC(0-inf) at 24 h (in vivo; po, 20 mg/kg): 93.6 µM·h | half-life (in vivo; po, 20 mg/kg): 3 h | caseum distribution unbound [18]: 3.6%

[C-]#[N+]c1ccc(CN(C)c2cc(C(=O)Nc3ccccc3)ncn2)cc1 [compound 16]
MIC99 [19]: > 50 µM | solubility at 2 h (physchem [20]): < 5 µM

CC(=O)N1CCN(c2ccc(NC(=O)c3cc(N(C)Cc4ccc(C(F)(F)F)nc4)ncn3)cn2)CC1 [compound 44]
MIC99 [19]: 4.7 µM (≈ 2.42 µg/mL) | MIC99 [21]: 2.3 µM (≈ 1.18 µg/mL) | solubility at 2 h (physchem [20]): < 5 µM | CC50 (in vitro [22]): > 50 µM
